Entries after “also recorded” stand apart in the source; their conditions may differ.
Tests used:
KCNQ1 = target: T1, KCNQ1 (Homo sapiens, UniProt P51787); assay: Whole-cell voltage clamp of CHO cells expressing KCNQ1; format: cell-based; conditions: 10 μM ZnPy, extracellular
T1 construct: expressed in transfected cells; host or cells: CHO cells
Experimental: (§1) Cell culture and transient transfection—Chinese Hamster Ovary (CHO) cells were grown in 50/50 DMEM/F12 (Cellgro) with 10% FBS (Gibco), 100 U/ml penicillin (Cellgro), 100 μg/ml streptomycin (Cellgro) and 2 mM L-glutamine (Gibco). At 24 hours before transfection, cells were split and plated in 60 mm dishes and were transfected with Lipofectamine2000™ reagent (Invitrogen) according to the manufacturer's instruction. At 24 hours after transfection, cells were split and re-plated onto coverslips coated with poly-L-lysine (Sigma). Plasmid expressing CD4 cDNA as a marker was cotransfected with the channel cDNAs of hKCNQ1 (from Dr. Michael Sanguinetti), hKCNQ4 (from Dr. Vitya Vardanyan), rKCNQ2, rKCNQ3, and hKCNQ5 (from Drs. David McKinnon, Mark Shapiro, and Thomas Jentsch). Prior to recording, anti-CD4 Dynabeads (Dynal. Biotech. Inc.) were added into the medium to allow for identification of the transfected cells. Stable lines expressing Kv2.1, hERG, and Kv4.2 were generated by standard protocols using pcDNA3.1 and maintained at complete medium supplemented with 500 μg/ml G418. […]
(§2) Electrophysiological Recording—Standard whole-cell recording was used. […] Current and voltage were recorded using an Axopatch-200A amplifier, filtered at 1 kHz and digitized using a DigiData 1322A with pClamp 9.2 software (Axon Instruments, Foster City, Calif.). […]

KCNQ4 = target: T2, KCNQ4 (Homo sapiens, UniProt P56696); assay: Whole-cell voltage clamp of CHO cells expressing KCNQ4; format: cell-based; conditions: 10 μM ZnPy, extracellular
T2 construct: expressed in transfected cells; host or cells: CHO cells
Experimental: as §1, §2

KCNQ2 (W236L) = target: T3, KCNQ2 (W236L) (Rattus norvegicus, UniProt O88943, W236L); assay: Whole-cell recording of KCNQ2 (W236L) mutant; format: cell-based; conditions: 2.5 μM ZnPy, −30 mV or +50 mV
T3 construct: expressed in transfected cells
Experimental: FIG. 8. Differential modulatory sites on KCNQ channel by ZnPy and retigabine. A. Left Panel. Representative KCNQ2 current was recorded with intracellular pipet solution supplemented with 10 μM ZnPy. The overlapping external application of ZnPy is as shown. Right Panel. G-V curves at different indicated recording times (0 to 12 minutes) upon establishing stable seal are shown. The intracellular perfusion (with or without EGTA) was first calibrated by using compatible molecular weight dye. […] The levels of current potentiation at +50 mV and −30 mV were calculated by Idrug/Icontrol, and shown as indicated (n≧4, *p<0.001).
(§3) Mutagenesis—Starting from KCNQ cDNAs, the KCNQ2 point mutants were constructed by recombinant PCR and verified by sequencing.
Electrophysiological Recording—Standard whole-cell recording was used. Pipettes were pulled from borosilicate glass capillaries (TW150-4, World Precision Instruments, Sarasota, Fla.). When filled with the intracellular solution, the pipettes have resistances of […]. During the recording, constant perfusion of extracellular solution was maintained using a BPS perfusion system (ALA, Westbury, N.Y.). […] Current and voltage were recorded using an Axopatch-200A amplifier, filtered at 1 kHz and digitized using a DigiData 1322A with pClamp 9.2 software (Axon Instruments, Foster City, Calif.). […]

KCNQ2(Y284C) = target: T4, KCNQ2(Y284C) (Rattus norvegicus, UniProt O88943, Y284C); assay: Whole-cell recording of KCNQ2(Y284C) BFNC mutant in CHO cells; format: cell-based; conditions: 10 μM ZnPy
T4 construct: expressed in transfected cells; host or cells: CHO cells, transient
Experimental: FIG. 11. ZnPy effects on BFNC mutant channels expressed in CHO cells. A. whole-cell currents of KCNQ2(R207W), KCNQ2(Y284C), and KCNQ2(A306T) were recorded in the absence (left) and presence (right) of 10 μM ZnPy, Vh was −80 mV, in 10 mV voltage steps from −70 mV to +50 mV. B. a histogram plotting potentiation effects on KCNQ2 wild type (wt) and BFNC mutants (R207W, Y284C and […]) by ZnPy (filled box) and retigabine (open box) (n≧4, * p<0.001, ** p<0.05).
as §3
Electrophysiological Recording—Standard whole-cell recording was used. Pipettes were pulled from borosilicate glass capillaries (TW150-4, World Precision Instruments, Sarasota, Fla.). When filled with the intracellular solution, the pipettes have resistances of […]. During the recording, constant perfusion of extracellular solution was maintained using a BPS perfusion system (ALA, Westbury, N.Y.). Pipette solution contained (mM): KCl 145, MgCl2 1, EGTA 5, HEPES 10, MgATP 5 (pH 7.3); extracellular solution contained (mM): NaCl 140, KCl 3, CaCl2 2, MgCl2 1.5, HEPES 10, glucose 10 (pH 7.4). Current and voltage were recorded using an Axopatch-200A amplifier, filtered at 1 kHz and digitized using a DigiData 1322A with pClamp 9.2 software (Axon Instruments, Foster City, Calif.). […]

M-current = assay: Native M-current in isolated dorsal root ganglion neurons; format: cell-based, rat; conditions: 10 μM ZnPy
Experimental: FIG. 10. ZnPy potentiation of native M-current. A. M current recorded from an isolated rat dorsal root ganglion neuron, Vh was −60 mV, stepped to −20 mV, followed by a step to −50 mV, and stepped back to −20 mV. B. Histograms show M-current amplitudes in the presence and absence of 10 μM ZnPy (n=10, * p<0.001). M-current amplitudes were measured by fitting the IM relaxation with an exponential equation. The recording bath solution includes 1 μM TTX, 0.2 mM TEA, 1 mM 4-AP, 50 μM CNQX, and 10 μM bicuculline. C. Membrane potential of an isolated hippocampal neuron was monitored when 10 μM ZnPy was applied in bath solution followed by the addition of 15 μM linopirdine. D. Action potentials elicited by 200 pA current injection to a patched hippocampal neuron. The ZnPy treatments are as indicated.
Neuron Culture—Dorsal root ganglia (DRG) was collected from fourteen-day-old CD rat and incubated in collagenase (sigma, 500 U/ml, 15 min) and then trypsin (Sigma, 1 mg/ml, 30 min) at 37° C. Single DRG neurons were isolated by mechanical trituration with a fire-polished glass Pasteur pipette. […]
as §2

Compound: S=c1ccccn1[O][Zn][O]n1ccccc1=S [ZnPy, Zinc Pyrithione]
- effect on channel activity (KCNQ1): potentiated; also recorded: potentiates KCNQ1
- effect on channel activity (KCNQ4): potentiated
- sensitivity of mutant to compound (KCNQ2 (W236L)): comparable sensitivity to KCNQ2 wild type; also recorded: fully effective in potentiating
- fold current increase (KCNQ2(Y284C)): more than 3 fold
- potentiation of M-current amplitude (M-current): 1.9 fold

Source: patent publication US20110257146A1, “Method of Treating Kcnq Related Disorders Using Organozinc Compounds” (The johns Hopkins University, priority 2006, published 2011)
